Laboratory results from patent US20250026743A1, “HETEROARYL-LINKED ANALOGS AS MGLU5 NEGATIVE ALLOSTERIC MODULATORS AND METHODS OF MAKING AND USING THE SAME” (Vanderbilt University, priority 2021, published 2025).

Target: T1, hmGlu5 (Homo sapiens, UniProt P41594)
T1 construct: expressed in transfected cells; host or cells: HEK 293A
Test: mGlu5 Ca2+ flux assay in HEK 293A cells (negative allosteric modulation of glutamate EC80 response)
Format: cell-based
Settings: for remaining activity at 30 µM: HEK293-A, % Glu max at 30 μM, read-out: hmGlu5 NAM Emin (%); for IC50: HEK 293A cells, Ca2+ flux, glutamate EC80, >10,000 = decrease without plateau, read-out: hmGlu5 NAM IC50
Protocol: HEK 293A cells stably expressing either rat or human mGlu5 were plated in black-walled, clear-bottomed, poly-D-lysine coated 384-well plates in 20 μL of assay medium (DMEM containing 10% dialyzed FBS, 20 mM HEPES, 100 units/mL penicillin/streptomycin plus 250 ng/mL Fungizone, and 1 mM sodium pyruvate) at a density of 20K cells/well. The cells were grown overnight at 37° C. in the presence of 5% CO2. The next day, medium was removed and the cells incubated with 20 μL of 2.3 μM Fluo-4, AM prepared as a 2.3 mM stock in DMSO and mixed in a 1:1 ratio with 10% (w/v) pluronic acid F-127 and diluted in assay buffer (Hank's balanced salt solution, 20 mM HEPES, and 2.5 mM probenecid) for 45 minutes at 37° C. Dye was removed, 20 μL of assay buffer was added, and the plate was incubated for 5 minutes at room temperature.
Ca^2+ flux was measured using the Functional Drug Screening System (FDSS7000, Hamamatsu, Japan). After establishment of a fluorescence baseline for about 3 seconds, the compounds of the present invention were added to the cells, and the response in cells was measured. 2.3 minutes later an EC20 concentration of the mGlu5 receptor agonist glutamate was added to the cells, and the response of the cells was measured for 1.9 minutes; an EC80 concentration of agonist was added and readings taken for an additional 1.7 minutes. All test compounds were dissolved and diluted to a concentration of 10 mM in 100% DMSO. Compounds were then serially diluted 1:3 in DMSO into 10 point concentration response curves, transferred to daughter plates, and further diluted into assay buffer to a 2× stock. Calcium fluorescence measures were recorded as fold over basal fluorescence; raw data was then normalized to the maximal response to glutamate. Antagonism of the agonist response of the mGlu5 receptor in the present invention was observed as a decrease in response to nearly maximal concentrations of glutamate in the presence of compound compared to the response to glutamate in the absence of compound.
The raw data file containing all time points was used as the data source in the analysis template. This was saved by the FDSS as a tab-delimited text file. Data were normalized using a static ratio function (F/F0) for each measurement of the total 360 values per well divided by each well's initial value. Data were then reduced to peak amplitudes (Max−Initial Min) using a time range that starts approximately 3 seconds prior to the glutamate EC20/EC80 addition and continues for approximately 90-120 seconds. This is sufficient time to capture the peak amplitude of the cellular calcium response. Individual amplitudes were expressed as % EMax by multiplying each amplitude by 100 and then dividing the product by the mean of the amplitudes derived from the glutamate ECMax-treated wells. IC50 values for test compounds were generated by fitting the normalized values versus the log of the test compound concentration (in mol/L) using a 4 parameter logistic equation where none of the parameters were fixed. Each of the three values collected at each concentration of test compound were weighted evenly.
For NAMs with a CRC that plateaus above 10% Glu Max, the IC50 values are reported, the compound is designated a “partial NAM” and the % Glu Max is reported. […] Compounds without measurable activity are designated as “>30,000 nM” since the top concentration of compound tested in the assay is 30 μM. […]

T1 sequence (P41594 21-1212): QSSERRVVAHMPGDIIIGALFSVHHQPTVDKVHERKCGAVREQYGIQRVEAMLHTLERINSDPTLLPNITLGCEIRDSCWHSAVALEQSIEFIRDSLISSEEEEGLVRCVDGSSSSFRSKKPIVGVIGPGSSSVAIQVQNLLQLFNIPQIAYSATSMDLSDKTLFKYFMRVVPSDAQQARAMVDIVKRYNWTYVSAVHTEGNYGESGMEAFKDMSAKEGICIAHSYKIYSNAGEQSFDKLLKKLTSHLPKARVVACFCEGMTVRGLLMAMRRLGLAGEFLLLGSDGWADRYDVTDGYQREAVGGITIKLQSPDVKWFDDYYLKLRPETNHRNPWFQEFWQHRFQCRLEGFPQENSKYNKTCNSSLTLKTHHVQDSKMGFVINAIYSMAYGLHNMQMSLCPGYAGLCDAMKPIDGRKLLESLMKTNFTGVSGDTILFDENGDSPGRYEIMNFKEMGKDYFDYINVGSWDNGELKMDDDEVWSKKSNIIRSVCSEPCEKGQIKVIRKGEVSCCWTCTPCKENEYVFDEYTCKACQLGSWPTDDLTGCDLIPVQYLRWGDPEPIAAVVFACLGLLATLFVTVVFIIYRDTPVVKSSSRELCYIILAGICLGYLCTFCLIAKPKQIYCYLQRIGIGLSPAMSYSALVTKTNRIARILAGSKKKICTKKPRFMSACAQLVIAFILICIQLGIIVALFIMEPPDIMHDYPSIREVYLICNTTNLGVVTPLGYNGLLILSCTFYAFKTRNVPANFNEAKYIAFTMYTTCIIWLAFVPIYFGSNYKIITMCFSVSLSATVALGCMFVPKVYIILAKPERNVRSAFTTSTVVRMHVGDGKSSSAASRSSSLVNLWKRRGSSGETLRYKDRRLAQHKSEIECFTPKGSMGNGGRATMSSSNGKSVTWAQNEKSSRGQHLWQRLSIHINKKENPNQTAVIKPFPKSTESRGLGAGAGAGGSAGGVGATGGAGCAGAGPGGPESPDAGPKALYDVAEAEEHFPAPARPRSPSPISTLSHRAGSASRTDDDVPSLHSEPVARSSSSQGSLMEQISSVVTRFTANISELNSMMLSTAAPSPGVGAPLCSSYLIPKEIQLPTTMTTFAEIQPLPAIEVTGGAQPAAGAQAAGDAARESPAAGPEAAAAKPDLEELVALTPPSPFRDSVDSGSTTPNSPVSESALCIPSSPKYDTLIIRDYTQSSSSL

Row | SMILES | remaining activity at 30 µM [%] | IC50 [nM]
1 | Cc1ccncc1-c1cc(-c2noc(-c3ncccc3F)n2)ncc1F [Compound 2, 3-(5′-fluoro-4-methyl-[3,4′-bipyridin]-2′-yl)-5-(3-fluoropyridin-2-yl)-1,2,4-oxadiazole] | 25 | 2630
2 | Cc1ccncc1-c1cc(-c2noc(Cc3ccnn3C)n2)nc(C)c1F [Compound 56, 3-(5′-fluoro-4,6′-dimethyl-[3,4′-bipyridin]-2′-yl)-5-((1-methyl-1H-pyrazol-5-yl)methyl)-1,2,4-oxadiazole] | 50 | > 10000
3 | Cc1cc(-c2cncc(F)c2)cc(-c2noc(-c3nc(C)cs3)n2)n1 [Compound 72, 3-(5-fluoro-6′-methyl-[3,4′-bipyridin]-2′-yl)-5-(4-methylthiazol-2-yl)-1,2,4-oxadiazole] | 11 | 917
4 | Cc1ccc(-c2cc(-c3nnc(-c4ccc(F)cn4)o3)nc(C)c2F)c(C)n1 [Compound 111, 2-(5′-fluoro-2,6,6′-trimethyl-[3,4′-bipyridin]-2′-yl)-5-(5-fluoropyridin-2-yl)-1,3,4-oxadiazole] | 2 | 1530
5 | Cc1nc(-c2noc(C3CCOCC3)n2)cc(-c2cncc(F)c2)c1F [Compound 37, 3-(5,5′-difluoro-6′-methyl-[3,4′-bipyridin]-2′-yl)-5-(tetrahydro-2H-pyran-4-yl)-1,2,4-oxadiazole] | 54 | > 10000
6 | Cc1cc(CC2CCOC2)cc(-c2noc(-c3ccc(F)cn3)n2)n1 (stereo not shown) [Compound 86, 5-(5-fluoropyridin-2-yl)-3-(6-methyl-4-((tetrahydrofuran-3-yl)methyl)pyridin-2-yl)-1,2,4-oxadiazole] | 1 | 766
7 | Cc1ccncc1-c1cc(-c2noc(C(F)c3ccccc3)n2)nc(C)c1F (stereo not shown) [Compound 89, 5-(fluoro(phenyl)methyl)-3-(5′-fluoro-4,6′-dimethyl-[3,4′-bipyridin]-2′-yl)-1,2,4-oxadiazole] | 3 | 3600

Now those with a lower IC50, led by results:

Row | remaining activity at 30 µM [%] | IC50 [nM] | SMILES
8 | 2 | 49 | Cc1ccncc1-c1cc(-c2noc(-c3cccc(F)c3)n2)nc(C)c1F [Compound 20, 3-(5′-fluoro-4,6′-dimethyl-[3,4′-bipyridin]-2′-yl)-5-(3-fluorophenyl)-1,2,4-oxadiazole]
9 | 2 | 59 | Cc1nc(-c2noc(-c3ccc(F)cn3)n2)cc(-c2cncc(F)c2)c1F [Compound 6, 3-(5,5′-difluoro-6′-methyl-[3,4′-bipyridin]-2′-yl)-5-(5-fluoropyridin-2-yl)-1,2,4-oxadiazole]
10 | 3 | 192 | Cc1ccncc1-c1cc(-c2noc(-c3ccc(F)cn3)n2)ncc1F [Compound 1, 3-(5′-fluoro-4-methyl-[3,4′-bipyridin]-2′-yl)-5-(5-fluoropyridin-2-yl)-1,2,4-oxadiazole]
11 | 2 | 155 | Cc1ccncc1-c1cc(-c2noc(-c3cc(Cl)ccn3)n2)nc(C)c1F [Compound 91, 5-(4-chloropyridin-2-yl)-3-(5′-fluoro-4,6′-dimethyl-[3,4′-bipyridin]-2′-yl)-1,2,4-oxadiazole]
12 | 2 | 64 | Cc1nc(-c2n[nH]c(-c3ccc(F)cn3)n2)cc(-c2cncc(F)c2)c1F [Compound 96, 3′,5-difluoro-6′-(5-(5-fluoropyridin-2-yl)-1H-1,2,4-triazol-3-yl)-2′-methyl-3,4′-bipyridine]
13 | 2 | 298 | COc1ccncc1-c1cc(-c2nnc(-c3ccc(F)cn3)o2)nc(C)c1F [Compound 73, 2-(5′-fluoro-4-methoxy-6′-methyl-[3,4′-bipyridin]-2′-yl)-5-(5-fluoropyridin-2-yl)-1,3,4-oxadiazole]
14 | 3 | 138 | Cc1nc(-c2nnc(-c3ccc(F)cn3)o2)cc(-c2cnccc2Cl)c1F [Compound 77, 2-(4-chloro-5′-fluoro-6′-methyl-[3,4′-bipyridin]-2′-yl)-5-(5-fluoropyridin-2-yl)-1,3,4-oxadiazole]
